In ChEMBL document CHEMBL4507283, “Data for DCP probe BI-1935” (2021):

How the values were obtained:
[1] = target: Sodium-dependent serotonin transporter (Homo sapiens) (UniProt P31645); assay: 5HTTRANS/HU Eurofins-Panlabs selectivity data (BI); settings: Compound concentration 10.0 uM
[2] = target: Carbonic anhydrase 6 (Homo sapiens) (UniProt P23280); assay: CANHYDRASE Eurofins-Panlabs selectivity data (BI); settings: Compound concentration 10.0 uM
[3] = target: 3-hydroxy-3-methylglutaryl-coenzyme A reductase (Rattus norvegicus) (UniProt P51639); assay: HMGCOARED Eurofins-Panlabs selectivity data (BI); settings: Compound concentration 10.0 uM
[4] = target: ATP-sensitive inward rectifier potassium channel 1 isoform X1 (Mesocricetus auratus) (UniProt A0A1U8CU73); assay: K+/KATP/HA Eurofins-Panlabs selectivity data (BI); settings: Compound concentration 10.0 uM
[5] = target: Renin (Homo sapiens) (UniProt P00797); assay: RENIN (HU) Eurofins-Panlabs selectivity data (BI); settings: Compound concentration 10.0 uM
[6] = system: Tyrosine-protein kinase ABL1 (Homo sapiens), P00519 [T315I]; settings: Compound concentration 1000.0 nM
[7] = target: 5'-AMP-activated protein kinase catalytic subunit alpha-2 (Homo sapiens) (UniProt P54646); settings: Compound concentration 1000.0 nM
[8] = target: Mitogen-activated protein kinase kinase kinase 6 (Homo sapiens) (UniProt O95382); settings: Compound concentration 1000.0 nM
[9] = target: Mitotic checkpoint serine/threonine-protein kinase BUB1 (Homo sapiens) (UniProt O43683); settings: Compound concentration 1000.0 nM
[10] = target: Cyclin-dependent kinase-like 3 (Homo sapiens) (UniProt Q8IVW4); settings: Compound concentration 1000.0 nM
[11] = target: Cyclin-dependent kinase-like 5 (Homo sapiens) (UniProt O76039); settings: Compound concentration 1000.0 nM
[12] = target: Dual specificity protein kinase CLK4 (Homo sapiens) (UniProt Q9HAZ1); settings: Compound concentration 1000.0 nM
[13] = target: Ephrin type-B receptor 3 (Homo sapiens) (UniProt P54753); settings: Compound concentration 1000.0 nM
[14] = target: Receptor tyrosine-protein kinase erbB-3 (Homo sapiens) (UniProt P21860); settings: Compound concentration 1000.0 nM
Receptor tyrosine-protein kinase erbB-3 (Homo sapiens), sequence (P21860 whole entry): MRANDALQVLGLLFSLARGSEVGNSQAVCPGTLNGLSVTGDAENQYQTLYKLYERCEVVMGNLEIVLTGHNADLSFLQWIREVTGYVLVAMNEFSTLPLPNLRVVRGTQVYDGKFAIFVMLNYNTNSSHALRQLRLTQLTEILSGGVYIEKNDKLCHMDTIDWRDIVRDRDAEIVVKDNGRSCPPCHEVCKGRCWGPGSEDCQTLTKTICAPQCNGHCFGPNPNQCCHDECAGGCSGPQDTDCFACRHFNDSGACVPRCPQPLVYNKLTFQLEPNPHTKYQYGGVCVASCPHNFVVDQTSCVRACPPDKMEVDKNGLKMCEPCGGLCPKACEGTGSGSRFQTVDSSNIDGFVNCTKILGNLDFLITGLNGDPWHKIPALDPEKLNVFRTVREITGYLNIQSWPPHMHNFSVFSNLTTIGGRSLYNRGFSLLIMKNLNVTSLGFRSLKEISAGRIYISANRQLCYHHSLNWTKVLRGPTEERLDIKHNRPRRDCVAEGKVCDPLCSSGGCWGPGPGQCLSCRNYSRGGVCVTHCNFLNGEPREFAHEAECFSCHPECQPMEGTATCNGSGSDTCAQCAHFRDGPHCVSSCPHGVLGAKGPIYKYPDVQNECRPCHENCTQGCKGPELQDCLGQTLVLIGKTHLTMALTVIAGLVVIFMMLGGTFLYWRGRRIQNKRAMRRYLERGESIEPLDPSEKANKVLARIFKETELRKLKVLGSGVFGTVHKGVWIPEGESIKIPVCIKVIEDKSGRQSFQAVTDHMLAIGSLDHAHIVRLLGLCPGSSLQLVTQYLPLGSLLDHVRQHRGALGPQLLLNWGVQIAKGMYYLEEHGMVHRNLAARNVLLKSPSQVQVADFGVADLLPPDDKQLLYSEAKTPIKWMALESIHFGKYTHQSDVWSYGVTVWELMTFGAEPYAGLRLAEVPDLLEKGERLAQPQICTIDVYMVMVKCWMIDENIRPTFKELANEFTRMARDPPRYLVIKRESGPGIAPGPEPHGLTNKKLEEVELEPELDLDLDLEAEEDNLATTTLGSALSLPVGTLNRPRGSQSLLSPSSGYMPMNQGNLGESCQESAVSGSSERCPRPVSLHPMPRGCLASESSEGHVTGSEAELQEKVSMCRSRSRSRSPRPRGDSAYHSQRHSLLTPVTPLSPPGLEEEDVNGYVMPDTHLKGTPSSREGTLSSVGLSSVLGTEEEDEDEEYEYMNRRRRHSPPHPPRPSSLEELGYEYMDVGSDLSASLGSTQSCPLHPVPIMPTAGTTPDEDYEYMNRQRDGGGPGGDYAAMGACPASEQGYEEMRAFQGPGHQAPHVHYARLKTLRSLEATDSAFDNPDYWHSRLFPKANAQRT

[15] = target: Mitogen-activated protein kinase 4 (Homo sapiens) (UniProt P31152); settings: Compound concentration 1000.0 nM
[16] = target: Fibroblast growth factor receptor 3 (Homo sapiens) (UniProt P22607); settings: Compound concentration 1000.0 nM
[17] = system: Receptor-type tyrosine-protein kinase FLT3 (Homo sapiens), P36888 [UNDEFINED MUTATION]; settings: Compound concentration 1000.0 nM
[18] = system: Receptor-type tyrosine-protein kinase FLT3 (Homo sapiens), P36888 [N841I]; settings: Compound concentration 1000.0 nM
[19] = system: Receptor-type tyrosine-protein kinase FLT3 (Homo sapiens), P36888 [R834Q]; settings: Compound concentration 1000.0 nM
[20] = system: eIF-2-alpha kinase GCN2 (Homo sapiens), Q9P2K8 [S808G]; settings: Compound concentration 1000.0 nM
[21] = target: Rhodopsin kinase GRK7 (Homo sapiens) (UniProt Q8WTQ7); settings: Compound concentration 1000.0 nM
[22] = target: Serine/threonine-protein kinase haspin (Homo sapiens) (UniProt Q8TF76); settings: Compound concentration 1000.0 nM
[23] = target: Homeodomain-interacting protein kinase 1 (Homo sapiens) (UniProt Q86Z02); settings: Compound concentration 1000.0 nM
[24] = target: Insulin-like growth factor 1 receptor (Homo sapiens) (UniProt P08069); settings: Compound concentration 1000.0 nM
[25] = target: Insulin receptor-related protein (Homo sapiens) (UniProt P14616); settings: Compound concentration 1000.0 nM
[26] = target: Interleukin-1 receptor-associated kinase 4 (Homo sapiens) (UniProt Q9NWZ3); settings: Compound concentration 1000.0 nM
[27] = target: Tyrosine-protein kinase Mer (Homo sapiens) (UniProt Q12866); settings: Compound concentration 1000.0 nM
[28] = target: Serine/threonine-protein kinase 3 (Homo sapiens) (UniProt Q13188); settings: Compound concentration 1000.0 nM
[29] = target: Myosin light chain kinase, smooth muscle (Homo sapiens) (UniProt Q15746); settings: Compound concentration 1000.0 nM
[30] = target: Serine/threonine-protein kinase Nek1 (Homo sapiens) (UniProt Q96PY6); settings: Compound concentration 1000.0 nM
[31] = target: Cyclin-dependent kinase 18 (Homo sapiens) (UniProt Q07002); settings: Compound concentration 1000.0 nM
[32] = target: Phosphorylase b kinase gamma catalytic chain, skeletal muscle/heart isoform (Homo sapiens) (UniProt Q16816); settings: Compound concentration 1000.0 nM
[33] = system: Phosphatidylinositol 4,5-bisphosphate 3-kinase catalytic subunit alpha isoform (Homo sapiens), P42336 [C420R]; settings: Compound concentration 1000.0 nM
[34] = system: Phosphatidylinositol 4,5-bisphosphate 3-kinase catalytic subunit alpha isoform (Homo sapiens), P42336 [Q546K]; settings: Compound concentration 1000.0 nM
[35] = target: Phosphatidylinositol 4,5-bisphosphate 3-kinase catalytic subunit delta isoform (Homo sapiens) (UniProt O00329); settings: Compound concentration 1000.0 nM
[36] = target: 1-phosphatidylinositol 3-phosphate 5-kinase (Homo sapiens) (UniProt Q9Y2I7); settings: Compound concentration 1000.0 nM
1-phosphatidylinositol 3-phosphate 5-kinase (Homo sapiens), sequence (Q9Y2I7 whole entry): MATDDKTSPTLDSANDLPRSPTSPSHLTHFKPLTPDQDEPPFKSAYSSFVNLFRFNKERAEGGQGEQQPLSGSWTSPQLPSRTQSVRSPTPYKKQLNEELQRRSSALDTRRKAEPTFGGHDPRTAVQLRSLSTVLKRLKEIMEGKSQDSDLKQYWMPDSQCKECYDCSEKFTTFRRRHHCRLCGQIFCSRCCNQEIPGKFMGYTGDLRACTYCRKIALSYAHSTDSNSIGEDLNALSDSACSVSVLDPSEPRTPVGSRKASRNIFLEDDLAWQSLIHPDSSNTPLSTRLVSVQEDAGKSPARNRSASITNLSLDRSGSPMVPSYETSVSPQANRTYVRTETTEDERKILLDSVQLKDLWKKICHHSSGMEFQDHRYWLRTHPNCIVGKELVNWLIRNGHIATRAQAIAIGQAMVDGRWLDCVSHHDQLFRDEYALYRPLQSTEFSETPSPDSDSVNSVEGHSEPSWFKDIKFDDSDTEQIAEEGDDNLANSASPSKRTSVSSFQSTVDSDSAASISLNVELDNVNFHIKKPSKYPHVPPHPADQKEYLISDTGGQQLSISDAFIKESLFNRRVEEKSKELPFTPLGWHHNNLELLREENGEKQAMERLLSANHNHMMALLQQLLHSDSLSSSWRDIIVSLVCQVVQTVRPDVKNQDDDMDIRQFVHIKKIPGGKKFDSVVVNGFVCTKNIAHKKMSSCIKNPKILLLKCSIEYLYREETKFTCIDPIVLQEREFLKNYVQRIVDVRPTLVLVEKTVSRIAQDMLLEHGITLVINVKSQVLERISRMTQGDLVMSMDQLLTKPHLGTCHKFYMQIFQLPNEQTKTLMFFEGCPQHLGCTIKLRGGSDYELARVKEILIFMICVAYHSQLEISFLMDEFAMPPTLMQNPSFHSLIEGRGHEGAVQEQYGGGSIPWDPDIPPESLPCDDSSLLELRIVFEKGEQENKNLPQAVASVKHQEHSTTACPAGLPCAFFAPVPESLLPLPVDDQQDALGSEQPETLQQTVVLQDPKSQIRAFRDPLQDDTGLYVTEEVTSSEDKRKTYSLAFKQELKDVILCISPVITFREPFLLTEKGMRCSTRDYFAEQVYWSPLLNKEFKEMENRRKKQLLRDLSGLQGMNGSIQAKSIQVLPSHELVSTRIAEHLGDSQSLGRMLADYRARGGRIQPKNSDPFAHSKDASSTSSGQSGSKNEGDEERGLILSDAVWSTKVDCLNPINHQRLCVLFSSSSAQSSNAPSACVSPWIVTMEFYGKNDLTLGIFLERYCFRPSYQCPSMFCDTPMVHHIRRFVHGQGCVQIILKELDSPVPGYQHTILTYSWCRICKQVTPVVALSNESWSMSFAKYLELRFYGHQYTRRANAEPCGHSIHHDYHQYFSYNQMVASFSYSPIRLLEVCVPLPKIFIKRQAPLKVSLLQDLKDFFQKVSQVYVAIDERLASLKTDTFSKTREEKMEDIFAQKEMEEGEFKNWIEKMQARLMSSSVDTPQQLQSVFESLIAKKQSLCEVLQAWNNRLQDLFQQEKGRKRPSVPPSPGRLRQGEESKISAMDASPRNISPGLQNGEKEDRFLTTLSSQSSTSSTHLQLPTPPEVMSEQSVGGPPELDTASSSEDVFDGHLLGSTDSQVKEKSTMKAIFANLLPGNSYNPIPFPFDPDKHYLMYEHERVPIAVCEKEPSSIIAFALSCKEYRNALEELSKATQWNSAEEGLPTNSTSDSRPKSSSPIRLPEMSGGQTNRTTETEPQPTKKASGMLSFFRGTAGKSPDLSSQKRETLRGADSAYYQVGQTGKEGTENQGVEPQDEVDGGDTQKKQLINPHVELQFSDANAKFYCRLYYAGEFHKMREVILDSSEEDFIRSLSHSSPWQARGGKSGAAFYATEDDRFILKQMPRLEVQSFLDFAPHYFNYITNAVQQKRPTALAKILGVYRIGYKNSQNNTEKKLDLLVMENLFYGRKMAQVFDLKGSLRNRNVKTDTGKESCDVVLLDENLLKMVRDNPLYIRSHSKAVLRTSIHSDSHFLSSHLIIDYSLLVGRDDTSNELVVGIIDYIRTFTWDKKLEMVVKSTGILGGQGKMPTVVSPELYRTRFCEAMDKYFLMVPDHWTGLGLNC

[37] = target: Serine/threonine-protein kinase SIK3 (Homo sapiens) (UniProt Q9Y2K2); settings: Compound concentration 1000.0 nM
[38] = target: Ribosomal protein S6 kinase alpha-2 (Homo sapiens) (UniProt Q15349); settings: Compound concentration 1000.0 nM
Ribosomal protein S6 kinase alpha-2 (Homo sapiens), sequence (Q15349 whole entry): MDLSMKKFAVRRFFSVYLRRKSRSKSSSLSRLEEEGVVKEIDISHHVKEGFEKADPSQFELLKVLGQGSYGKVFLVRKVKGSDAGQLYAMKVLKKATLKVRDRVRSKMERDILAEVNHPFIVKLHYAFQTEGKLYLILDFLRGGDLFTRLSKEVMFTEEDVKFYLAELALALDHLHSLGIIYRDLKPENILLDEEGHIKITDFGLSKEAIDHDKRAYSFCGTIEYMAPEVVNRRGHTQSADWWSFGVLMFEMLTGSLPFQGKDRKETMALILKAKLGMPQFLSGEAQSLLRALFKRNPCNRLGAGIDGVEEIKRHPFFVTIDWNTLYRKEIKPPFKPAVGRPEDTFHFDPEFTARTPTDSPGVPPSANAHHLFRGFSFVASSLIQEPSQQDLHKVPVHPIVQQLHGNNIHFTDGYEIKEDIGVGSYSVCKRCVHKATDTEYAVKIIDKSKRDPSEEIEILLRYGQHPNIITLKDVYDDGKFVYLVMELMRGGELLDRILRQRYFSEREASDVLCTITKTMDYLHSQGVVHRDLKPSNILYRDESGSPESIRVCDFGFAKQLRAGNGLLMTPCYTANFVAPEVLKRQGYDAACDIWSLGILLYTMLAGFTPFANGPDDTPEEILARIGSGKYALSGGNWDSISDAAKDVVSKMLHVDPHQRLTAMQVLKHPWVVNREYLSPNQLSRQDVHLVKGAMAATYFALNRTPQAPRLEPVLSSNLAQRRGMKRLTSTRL

[39] = target: Tyrosine-protein kinase Srms (Homo sapiens) (UniProt Q9H3Y6); settings: Compound concentration 1000.0 nM
[40] = target: Serine/threonine-protein kinase tousled-like 2 (Homo sapiens) (UniProt Q86UE8); settings: Compound concentration 1000.0 nM
[41] = target: Serine/threonine-protein kinase ULK3 (Homo sapiens) (UniProt Q6PHR2); settings: Compound concentration 1000.0 nM
[42] = target: Histamine H1 receptor (Homo sapiens) (UniProt P35367); settings: Compound concentration 10.0 uM
[43] = target: Muscarinic acetylcholine receptor M4 (Homo sapiens) (UniProt P08173); settings: Compound concentration 10.0 uM
[44] = system: GABA-B receptor (GABBR1, rat); assay: GABAB/RA Eurofins-Panlabs selectivity data (BI); settings: Compound concentration 10.0 uM

Sodium-dependent serotonin transporter (Homo sapiens), sequence (P31645 whole entry, looked up): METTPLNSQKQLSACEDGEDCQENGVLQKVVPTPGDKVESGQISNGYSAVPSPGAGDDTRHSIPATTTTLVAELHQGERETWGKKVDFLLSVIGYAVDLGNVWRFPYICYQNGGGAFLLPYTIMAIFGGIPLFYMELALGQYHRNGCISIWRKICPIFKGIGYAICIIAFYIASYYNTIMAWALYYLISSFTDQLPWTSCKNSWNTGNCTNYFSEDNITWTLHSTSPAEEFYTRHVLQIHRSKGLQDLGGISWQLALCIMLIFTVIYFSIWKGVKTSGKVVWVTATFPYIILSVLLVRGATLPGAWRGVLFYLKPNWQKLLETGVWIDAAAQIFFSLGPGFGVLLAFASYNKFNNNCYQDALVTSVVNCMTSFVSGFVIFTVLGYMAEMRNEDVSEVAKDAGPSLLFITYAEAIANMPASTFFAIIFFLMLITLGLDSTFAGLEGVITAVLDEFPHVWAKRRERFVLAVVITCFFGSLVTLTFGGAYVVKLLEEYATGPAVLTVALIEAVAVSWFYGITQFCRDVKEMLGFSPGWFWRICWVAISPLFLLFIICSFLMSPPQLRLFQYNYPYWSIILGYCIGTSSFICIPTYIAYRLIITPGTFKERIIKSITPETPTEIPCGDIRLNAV
Carbonic anhydrase 6 (Homo sapiens), sequence (P23280 whole entry): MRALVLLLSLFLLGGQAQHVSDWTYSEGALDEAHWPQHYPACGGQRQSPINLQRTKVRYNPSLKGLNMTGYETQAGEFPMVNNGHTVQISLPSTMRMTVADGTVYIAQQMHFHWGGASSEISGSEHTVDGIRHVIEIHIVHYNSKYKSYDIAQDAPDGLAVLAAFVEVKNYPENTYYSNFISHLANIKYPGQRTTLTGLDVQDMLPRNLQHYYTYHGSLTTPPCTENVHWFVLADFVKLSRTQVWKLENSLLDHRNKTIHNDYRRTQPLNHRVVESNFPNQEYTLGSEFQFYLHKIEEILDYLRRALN

CCOCCn1cc(C(=O)Nc2ccc(-n3nc(-c4cccnc4)cc3C(F)(F)F)cn2)ccc1=O [BI 1935]
inactive: residual activity [1] 100% | residual activity [2] 96% | residual activity [3] 87% | residual activity [4] 92% | residual activity [5] 94% | residual activity [6] 96% | residual activity [7] 100% | residual activity [8] 86% | residual activity [9] 79% | residual activity [10] 84% | residual activity [11] 90% | residual activity [12] 100% | residual activity [13] 89% | residual activity [14] 87% | residual activity [15] 100% | residual activity [16] 84% | residual activity [17] 79% | residual activity [18] 92% | residual activity [19] 100% | residual activity [20] 72% | residual activity [21] 88% | residual activity [22] 100% | residual activity [23] 90% | residual activity [24] 96% | residual activity [25] 100% | residual activity [26] 96% | residual activity [27] 83% | residual activity [28] 100% | residual activity [29] 73% | residual activity [30] 100% | residual activity [31] 98% | residual activity [32] 100% | residual activity [33] 93% | residual activity [34] 95% | residual activity [35] 100% | residual activity [36] 97% | residual activity [37] 92% | residual activity [38] 84% | residual activity [39] 79% | residual activity [40] 100% | residual activity [41] 61% | inhibition [42] 12.2% | inhibition [43] 4.25% | residual activity [44] 94%
